Experimental data published in patent publication US20120029187A1, “HALOALKYLSULFONANILIDE DERIVATIVE” (Nissan Chemical Industries, Ltd., priority 2009, published 2012).

What was measured:
Format in all cases: in vivo
bulrush [1] = assay: Test Example 2: herbicidal effects during the vegetation period under submerged conditions; details: treatment during the vegetation period under submerged conditions; dose 2.52 g/a
Method in brief: (§1)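 Barnyardgrass, bulrush and ducksalad were co-sown in alluvial soil flooded to 4 cm and grown in a greenhouse at 25 to 30° C. At the 1- or 2-leaf stage, water-diluted emulsifiable concentrates went onto the water surface at set doses (g/a). Herbicidal effect was scored three weeks later on a graded scale.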

ducksalad [2] = assay: as above; details: treatment during the vegetation period under submerged conditions; dose 2.52 g/a
Method in brief: as §1

barnyardgrass [3] = assay: as above; details: treatment during the vegetation period under submerged conditions; dose 2.52 g/a
Method in brief: as §1

water foxtail [4] = assay: Test Example 4: herbicidal effect in foliage treatment; details: dose 3.2 g/a, three weeks after application
Method in brief: (§2)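 Post-emergence foliar spray of water-diluted emulsifiable concentrate at predetermined doses (g per are), applied to plants 14 days after sowing in sterile diluvial soil (greenhouse, 25 to 30° C). Visual scale rating of effect taken 3 weeks later.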

large crabgrass [5] = assay: as above; details: dose 3.2 g/a, three weeks after application
Method in brief: as §2

beadstraw = assay: as above; details: dose 3.2 g/a, three weeks after application
Method in brief: as §2

velvetleaf = assay: as above; details: dose 3.2 g/a, three weeks after application
Method in brief: as §2

wild oat [6] = assay: as above; details: dose 3.2 g/a, three weeks after application
Method in brief: as §2

giant foxtail [7] = assay: as above; details: dose 3.2 g/a, three weeks after application
Method in brief: as §2

common chickweed [8] = assay: as above; details: dose 3.2 g/a, three weeks after application
Method in brief: as §2

Italian ryegrass [9] = assay: as above; details: dose 3.2 g/a, three weeks after application
Method in brief: as §2

redroot pigweed [10] = assay: as above; details: dose 3.2 g/a, three weeks after application
Method in brief: as §2

common ragweed [11] = assay: as above; details: dose 3.2 g/a, three weeks after application
Method in brief: as §2

barnyardgrass [12] = assay: as above; details: dose 3.2 g/a, three weeks after application
Method in brief: as §2

posumbu knotweed [13] = assay: as above; details: dose 3.2 g/a, three weeks after application
Method in brief: as §2

common lambsquater [14] = assay: as above; details: dose 3.2 g/a, three weeks after application
Method in brief: as §2

transplanted rice = assay: Test Example 1: preemergence treatment under submerged conditions, effect on crop; details: dose 2.52 g/a
Method in brief: (§3)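 Score 0–5 by mortality (5: ≥90%; 0: <5%), read 3 weeks post-application. Paddy-type cups: alluvial soil under 4 cm water, weeds seeded plus transplanted 2.5-leaf rice; diluted EC dosed onto water surface same day as sowing, g/a basis; greenhouse 25 to 30° C.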

water foxtail [15] = assay: Test Example 3: herbicidal effects in soil treatment; details: dose 3.2 g/a
Method in brief: (§4)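 Seeds were sown in sterilized diluvial soil and covered with about 1.5 cm of soil. Compounds, formulated as emulsifiable concentrates and diluted with water, were sprayed evenly over the soil surface at set doses in g/a. Herbicidal effect was scored on a rating scale three weeks later.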

large crabgrass [16] = assay: as above; details: dose 3.2 g/a
Method in brief: as §4

wild oat [17] = assay: as above; details: dose 3.2 g/a
Method in brief: as §4

giant foxtail [18] = assay: as above; details: dose 3.2 g/a
Method in brief: as §4

common chickweed [19] = assay: as above; details: dose 3.2 g/a
Method in brief: as §4

Italian ryegrass [20] = assay: as above; details: dose 3.2 g/a
Method in brief: as §4

redroot pigweed [21] = assay: as above; details: dose 3.2 g/a
Method in brief: as §4

common ragweed [22] = assay: as above; details: dose 3.2 g/a
Method in brief: as §4

barnyardgrass [23] = assay: as above; details: dose 3.2 g/a
Method in brief: as §4

posumbu knotweed [24] = assay: as above; details: dose 3.2 g/a
Method in brief: as §4

common lambsquater [25] = assay: as above; details: dose 3.2 g/a
Method in brief: as §4

bulrush [26] = assay: Test Example 1: herbicidal effects in preemergence treatment under submerged conditions; details: dose 2.52 g/a
Method in brief: as §3

ducksalad [27] = assay: as above; details: dose 2.52 g/a
Method in brief: as §3

barnyardgrass [28] = assay: as above; details: dose 2.52 g/a
Method in brief: as §3

| SMILES | B: bulrush, herbicidal effect (evaluation scale 0-5) (bulrush [1]) | C: ducksalad, herbicidal effect (evaluation scale 0-5) (ducksalad [2]) | A: barnyardgrass, herbicidal effect (evaluation scale 0-5) (barnyardgrass [3]) | G: water foxtail, herbicidal effect (water foxtail [4]) | D: large crabgrass, herbicidal effect (large crabgrass [5]) | O: beadstraw, herbicidal effect (beadstraw) | I: velvetleaf, herbicidal effect (velvetleaf) | F: wild oat, herbicidal effect (wild oat [6]) | E: giant foxtail, herbicidal effect (giant foxtail [7]) | N: common chickweed, herbicidal effect (common chickweed [8]) | H: Italian ryegrass, herbicidal effect (Italian ryegrass [9]) | K: redroot pigweed, herbicidal effect (redroot pigweed [10]) | J: common ragweed, herbicidal effect (common ragweed [11]) | A: barnyardgrass, herbicidal effect (barnyardgrass [12]) | M: posumbu knotweed, herbicidal effect (posumbu knotweed [13]) | L: common lambsquater, herbicidal effect (common lambsquater [14]) | a: transplanted rice, effect on crop (evaluation scale 0-5) (transplanted rice) | G: water foxtail, herbicidal effect (evaluation scale 0-5) (water foxtail [15]) | D: large crabgrass, herbicidal effect (evaluation scale 0-5) (large crabgrass [16]) | F: wild oat, herbicidal effect (evaluation scale 0-5) (wild oat [17]) | also measured |
| --- | --- | --- | --- | --- | --- | --- | --- | --- | --- | --- | --- | --- | --- | --- | --- | --- | --- | --- | --- | --- | --- |
| CC(C)(C)COC(=O)N(c1ccccc1CN1COC(C)(C)CC1=O)S(=O)(=O)C(F)(F)F [II-27] | 5 (mortality of 90% or above (nearly complete death)) | 5 (mortality of 90% or above (nearly complete death)) | 5 (mortality of 90% or above (nearly complete death)) | 3 (mortality of at least 40% and less than 70%) | 4 (mortality of at least 70% and less than 90%) | 4 (mortality of at least 70% and less than 90%) | 5 (mortality of 90% or above (nearly complete death)) | 0 (mortality of less than 5% (almost ineffective)) | 3 (mortality of at least 40% and less than 70%) | 3 (mortality of at least 40% and less than 70%) | 3 (mortality of at least 40% and less than 70%) | 0 (mortality of less than 5% (almost ineffective)) | 4 (mortality of at least 70% and less than 90%) | 5 (mortality of 90% or above (nearly complete death)) | 3 (mortality of at least 40% and less than 70%) | 3 (mortality of at least 40% and less than 70%) | 0 (mortality of less than 5% (almost ineffective)) | 5 (mortality of 90% or above (nearly complete death)) | 5 (mortality of 90% or above (nearly complete death)) | 0 (mortality of less than 5% (almost ineffective)) | E: giant foxtail, herbicidal effect (evaluation scale 0-5) (giant foxtail [18]): 4 (mortality of at least 70% and less than 90%); N: common chickweed, herbicidal effect (evaluation scale 0-5) (common chickweed [19]): 4 (mortality of at least 70% and less than 90%); H: Italian ryegrass, herbicidal effect (evaluation scale 0-5) (Italian ryegrass [20]): 3 (mortality of at least 40% and less than 70%); K: redroot pigweed, herbicidal effect (evaluation scale 0-5) (redroot pigweed [21]): 0 (mortality of less than 5% (almost ineffective)); J: common ragweed, herbicidal effect (evaluation scale 0-5) (common ragweed [22]): 4 (mortality of at least 70% and less than 90%); A: barnyardgrass, herbicidal effect (evaluation scale 0-5) (barnyardgrass [23]): 5 (mortality of 90% or above (nearly complete death)); M: posumbu knotweed, herbicidal effect (evaluation scale 0-5) (posumbu knotweed [24]): 3 (mortality of at least 40% and less than 70%); L: common lambsquater, herbicidal effect (evaluation scale 0-5) (common lambsquater [25]): 0 (mortality of less than 5% (almost ineffective)); B: bulrush, herbicidal effect (evaluation scale 0-5) (bulrush [26]): 5 (mortality of 90% or above (nearly complete death)); C: ducksalad, herbicidal effect (evaluation scale 0-5) (ducksalad [27]): 5 (mortality of 90% or above (nearly complete death)); A: barnyardgrass, herbicidal effect (evaluation scale 0-5) (barnyardgrass [28]): 5 (mortality of 90% or above (nearly complete death)) |
| O=C1CC(c2ccccc2)OCN1Cc1ccccc1N(C(=O)OCCCl)S(=O)(=O)C(F)(F)F (centres unmarked) [II-12] | 5 (mortality of 90% or above (nearly complete death)) | 5 (mortality of 90% or above (nearly complete death)) | 4 (mortality of at least 70% and less than 90%) | 4 (mortality of at least 70% and less than 90%) | 2 (mortality of at least 20% and less than 40%) | 4 (mortality of at least 70% and less than 90%) | 3 (mortality of at least 40% and less than 70%) | 0 (mortality of less than 5% (almost ineffective)) | 3 (mortality of at least 40% and less than 70%) | 3 (mortality of at least 40% and less than 70%) | 0 (mortality of less than 5% (almost ineffective)) | 0 (mortality of less than 5% (almost ineffective)) | 4 (mortality of at least 70% and less than 90%) | 5 (mortality of 90% or above (nearly complete death)) | 1 (mortality of at least 5% and less than 20%) | 0 (mortality of less than 5% (almost ineffective)) | 0 (mortality of less than 5% (almost ineffective)) | 5 (mortality of 90% or above (nearly complete death)) | 4 (mortality of at least 70% and less than 90%) | 0 (mortality of less than 5% (almost ineffective)) | E: giant foxtail, herbicidal effect (evaluation scale 0-5) (giant foxtail [18]): 5 (mortality of 90% or above (nearly complete death)); N: common chickweed, herbicidal effect (evaluation scale 0-5) (common chickweed [19]): 3 (mortality of at least 40% and less than 70%); H: Italian ryegrass, herbicidal effect (evaluation scale 0-5) (Italian ryegrass [20]): 4 (mortality of at least 70% and less than 90%); K: redroot pigweed, herbicidal effect (evaluation scale 0-5) (redroot pigweed [21]): 0 (mortality of less than 5% (almost ineffective)); J: common ragweed, herbicidal effect (evaluation scale 0-5) (common ragweed [22]): 0 (mortality of less than 5% (almost ineffective)); A: barnyardgrass, herbicidal effect (evaluation scale 0-5) (barnyardgrass [23]): 4 (mortality of at least 70% and less than 90%); M: posumbu knotweed, herbicidal effect (evaluation scale 0-5) (posumbu knotweed [24]): 0 (mortality of less than 5% (almost ineffective)); L: common lambsquater, herbicidal effect (evaluation scale 0-5) (common lambsquater [25]): 0 (mortality of less than 5% (almost ineffective)); B: bulrush, herbicidal effect (evaluation scale 0-5) (bulrush [26]): 5 (mortality of 90% or above (nearly complete death)); C: ducksalad, herbicidal effect (evaluation scale 0-5) (ducksalad [27]): 5 (mortality of 90% or above (nearly complete death)); A: barnyardgrass, herbicidal effect (evaluation scale 0-5) (barnyardgrass [28]): 5 (mortality of 90% or above (nearly complete death)) |
